Assay results from patent US9023789B2, “Amylin analogs and pharmaceutical compositions thereof” (Novo Nordisk A/S, priority 2012, dated 2015).
Where two headings read alike, the source gives them in different places. Numbered stars: 1 amine (or outer) side, 2 acyl side, 3 side chain; on linkers, the order of the positions; unused ones are H or OH. Bridge positions count the residues as written; N and C are the ends. Peptide text beside a SMILES is read from it. * marks the point of attachment. C20 diacid = O=C(O)CCCCCCCCCCCCCCCCCCC(=O)*; γGlu = O=C(O)[C@H](CCC(=O)[*:2])N[*:1]

Experiment: ASSAY (IV) determination of solubility
Type: physicochemical
In short: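 Samples of polypeptide, prepared from a water stock at […] and diluted 1:1 into 100 mM buffers spanning pH 3.0 to 8.0, stood 18 hours at room temperature. Polypeptide concentration was then determined by UPLC following centrifugation.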

[1] = bistrispropane buffer, pH 6.5, read-out: Solubility pH 6.5 Concentration
[2] = bistrispropane buffer, pH 7.5, read-out: Solubility pH 7.5 Concentration
[3] = bistrispropane buffer, pH 6.0, read-out: Solubility pH 6.0 Concentration
[4] = bistrispropane buffer, pH 7.0, read-out: Solubility pH 7.0 Concentration
[5] = bistrispropane buffer, pH 8.0, read-out: Solubility pH 8.0 Concentration
[6] = glycylglycine buffer, pH 3.0, read-out: Solubility pH 3.0 Concentration
[7] = glycylglycine buffer, pH 4.0, read-out: Solubility pH 4.0 Concentration
[8] = glycylglycine buffer, pH 5.0, read-out: Solubility pH 5.0 Concentration

| solubility at 18 h [1] | solubility at 18 h [2] | solubility at 18 h [3] | solubility at 18 h [4] | solubility at 18 h [5] | solubility at 18 h [6] | solubility at 18 h [7] | solubility at 18 h [8] | Structure (SMILES) |
| --- | --- | --- | --- | --- | --- | --- | --- | --- |
| ≥ 200 µM | ≥ 200 µM | ≥ 200 µM | ≥ 200 µM | ≥ 200 µM | ≥ 200 µM | ≥ 200 µM | ≥ 200 µM | CC[C@H](C)[C@H](NC(=O)[C@H](C)NC(=O)CNC(=O)[C@H](Cc1ccccc1)NC(=O)[C@H](CC(N)=O)NC(=O)[C@@H]1CCCN1C(=O)[C@H](CO)NC(=O)[C@H](CO)NC(=O)[C@H](Cc1c[nH]cn1)NC(=O)[C@H](CCCNC(=N)N)NC(=O)[C@H](CC(C)C)NC(=O)[C@H](Cc1ccccc1)NC(=O)[C@H](CC(N)=O)NC(=O)[C@H](C)NC(=O)[C@H](CC(C)C)NC(=O)[C@H](CCCNC(=N)N)NC(=O)[C@H](CCC(N)=O)NC(=O)[C@@H](NC(=O)[C@H](C)NC(=O)[C@@H]1CSSC[C@H](NC(=O)[C@@H](N)CCCCNC(=O)COCCOCCNC(=O)COCCOCCNC(=O)CC[C@H](NC(=O)CCCCCCCCCCCCCCCCCCC(=O)O)C(=O)O)C(=O)N[C@@H](CC(N)=O)C(=O)N[C@@H]([C@@H](C)O)C(=O)N[C@@H](C)C(=O)N[C@@H]([C@@H](C)O)C(=O)N1)[C@@H](C)O)C(=O)N1CCC[C@H]1C(=O)N[C@@H](CO)C(=O)N[C@@H](CO)C(=O)N[C@H](C(=O)N[C@@H](CC(N)=O)C(=O)N[C@H](C(=O)NCC(=O)N[C@@H](CO)C(=O)N[C@@H](CCC(=O)O)C(=O)N[C@H](C(=O)N[C@@H](Cc1ccc(O)cc1)C(N)=O)[C@@H](C)O)C(C)C)[C@@H](C)O [Example 25] |
| ≥ 200 µM | ≥ 200 µM | ≥ 200 µM | ≥ 200 µM | ≥ 200 µM | ≥ 200 µM | ≥ 200 µM | ≥ 200 µM | CC[C@H](C)[C@H](NC(=O)[C@H](C)NC(=O)CNC(=O)[C@H](Cc1ccccc1)NC(=O)[C@H](CC(N)=O)NC(=O)[C@@H]1CCCN1C(=O)[C@H](CO)NC(=O)[C@H](CO)NC(=O)[C@H](Cc1c[nH]cn1)NC(=O)[C@H](CCCNC(=N)N)NC(=O)[C@H](CC(C)C)NC(=O)[C@H](Cc1ccccc1)NC(=O)[C@H](CC(N)=O)NC(=O)[C@H](C)NC(=O)[C@H](CC(C)C)NC(=O)[C@H](CCCNC(=N)N)NC(=O)[C@H](CCC(N)=O)NC(=O)[C@@H](NC(=O)[C@H](C)NC(=O)[C@@H]1CSSC[C@H](NC(=O)[C@@H](N)CCCCNC(=O)CC[C@H](NC(=O)CCCCCCCCCCCCCCCCCCC(=O)O)C(=O)O)C(=O)N[C@@H](CC(N)=O)C(=O)N[C@@H]([C@@H](C)O)C(=O)N[C@@H](C)C(=O)N[C@@H]([C@@H](C)O)C(=O)N1)[C@@H](C)O)C(=O)N1CCC[C@H]1C(=O)N[C@@H](CO)C(=O)N[C@@H](CO)C(=O)N[C@H](C(=O)N[C@@H](CC(N)=O)C(=O)N[C@H](C(=O)NCC(=O)N[C@@H](CO)C(=O)N[C@@H](CCC(=O)O)C(=O)N[C@H](C(=O)N[C@@H](Cc1ccc(O)cc1)C(N)=O)[C@@H](C)O)C(C)C)[C@@H](C)O [Example 27] |
| ≥ 200 µM | ≥ 200 µM | ≥ 200 µM | ≥ 200 µM | ≥ 200 µM | ≥ 200 µM | ≥ 200 µM | ≥ 200 µM | CC[C@H](C)[C@H](NC(=O)[C@H](C)NC(=O)CNC(=O)[C@H](Cc1ccccc1)NC(=O)[C@H](CC(N)=O)NC(=O)[C@@H]1CCCN1C(=O)[C@H](CO)NC(=O)[C@H](CO)NC(=O)[C@H](Cc1c[nH]cn1)NC(=O)[C@H](CCCNC(=N)N)NC(=O)[C@H](CC(C)C)NC(=O)[C@H](Cc1ccccc1)NC(=O)[C@H](Cc1c[nH]cn1)NC(=O)[C@H](C)NC(=O)[C@H](CC(C)C)NC(=O)[C@H](CCCNC(=N)N)NC(=O)[C@H](CCC(N)=O)NC(=O)[C@@H](NC(=O)[C@H](C)NC(=O)[C@@H]1CSSC[C@H](NC(=O)[C@H](CCCCN)NC(=O)CC[C@H](NC(=O)CCCCCCCCCCCCCCCCCCC(=O)O)C(=O)O)C(=O)N[C@@H](CC(N)=O)C(=O)N[C@@H]([C@@H](C)O)C(=O)N[C@@H](C)C(=O)N[C@@H]([C@@H](C)O)C(=O)N1)[C@@H](C)O)C(=O)N1CCC[C@H]1C(=O)N[C@@H](CO)C(=O)N[C@@H](CO)C(=O)N[C@H](C(=O)N[C@@H](CC(N)=O)C(=O)N[C@H](C(=O)NCC(=O)N[C@@H](CO)C(=O)N[C@@H](CCC(=O)O)C(=O)N[C@H](C(=O)N[C@@H](Cc1ccc(O)cc1)C(N)=O)[C@@H](C)O)C(C)C)[C@@H](C)O [Example 30] ({C20 diacid-γGlu}-KCNTATCATQRLAHFLRHSSPNFGAIPSSTNVGSETY-NH2; disulfide 2-7) |
| ≥ 200 µM | ≥ 200 µM | ≥ 200 µM | ≥ 200 µM | ≥ 200 µM | ≥ 200 µM | ≥ 200 µM | ≥ 200 µM | CC[C@H](C)[C@H](NC(=O)[C@H](C)NC(=O)CNC(=O)[C@H](Cc1ccccc1)NC(=O)[C@H](CC(N)=O)NC(=O)[C@@H]1CCCN1C(=O)[C@H](CO)NC(=O)[C@H](CO)NC(=O)[C@H](Cc1c[nH]cn1)NC(=O)[C@H](CCCNC(=N)N)NC(=O)[C@H](CC(C)C)NC(=O)[C@H](Cc1ccccc1)NC(=O)[C@H](CCC(=O)O)NC(=O)[C@H](C)NC(=O)[C@H](CC(C)C)NC(=O)[C@H](CCCNC(=N)N)NC(=O)[C@H](CCC(N)=O)NC(=O)[C@@H](NC(=O)[C@H](C)NC(=O)[C@@H]1CSSC[C@H](NC(=O)[C@H](CCCCN)NC(=O)CC[C@H](NC(=O)CCCCCCCCCCCCCCCCCCC(=O)O)C(=O)O)C(=O)N[C@@H](CC(N)=O)C(=O)N[C@@H]([C@@H](C)O)C(=O)N[C@@H](C)C(=O)N[C@@H]([C@@H](C)O)C(=O)N1)[C@@H](C)O)C(=O)N1CCC[C@H]1C(=O)N[C@@H](CO)C(=O)N[C@@H](CO)C(=O)N[C@H](C(=O)N[C@@H](CC(N)=O)C(=O)N[C@H](C(=O)NCC(=O)N1CCC[C@H]1C(=O)N[C@@H](CC(N)=O)C(=O)N[C@H](C(=O)N[C@@H](Cc1ccc(O)cc1)C(N)=O)[C@@H](C)O)C(C)C)[C@@H](C)O [Example 32] ({C20 diacid-γGlu}-KCNTATCATQRLAEFLRHSSPNFGAIPSSTNVGPNTY-NH2; disulfide 2-7) |
| ≥ 200 µM | ≥ 200 µM | ≥ 200 µM | ≥ 200 µM | ≥ 200 µM | ≥ 200 µM | ≥ 200 µM | ≥ 200 µM | CC[C@H](C)[C@H](NC(=O)[C@H](C)NC(=O)CNC(=O)[C@H](Cc1ccccc1)NC(=O)[C@H](CC(N)=O)NC(=O)[C@@H]1CCCN1C(=O)[C@H](CO)NC(=O)[C@H](CO)NC(=O)[C@H](Cc1c[nH]cn1)NC(=O)[C@H](CCCNC(=N)N)NC(=O)[C@H](CC(C)C)NC(=O)[C@H](Cc1ccccc1)NC(=O)[C@H](CC(N)=O)NC(=O)[C@H](C)NC(=O)[C@H](CC(C)C)NC(=O)[C@H](CCCNC(=N)N)NC(=O)[C@H](CCC(N)=O)NC(=O)[C@@H](NC(=O)[C@H](C)NC(=O)[C@@H]1CSSC[C@H](NC(=O)[C@H](CCCCN)NC(=O)CC[C@H](NC(=O)CCCCCCCCCCCCCCCCCCC(=O)O)C(=O)O)C(=O)N[C@@H](CC(N)=O)C(=O)N[C@@H]([C@@H](C)O)C(=O)N[C@@H](C)C(=O)N[C@@H]([C@@H](C)O)C(=O)N1)[C@@H](C)O)C(=O)N1CCC[C@H]1C(=O)N[C@@H](CO)C(=O)N[C@@H](CO)C(=O)N[C@H](C(=O)N[C@@H](CC(N)=O)C(=O)N[C@H](C(=O)NCC(=O)N[C@@H](CO)C(=O)N[C@@H](CCCCN)C(=O)N[C@H](C(=O)N[C@@H](Cc1ccc(O)cc1)C(N)=O)[C@@H](C)O)C(C)C)[C@@H](C)O [Example 34] |
| ≥ 200 µM | ≥ 200 µM | ≥ 200 µM | ≥ 200 µM | ≥ 200 µM | ≥ 200 µM | ≥ 200 µM | ≥ 200 µM | CC[C@H](C)[C@H](NC(=O)[C@H](C)NC(=O)CNC(=O)[C@H](Cc1ccccc1)NC(=O)[C@H](CC(N)=O)NC(=O)[C@@H]1CCCN1C(=O)[C@H](CO)NC(=O)[C@H](CO)NC(=O)[C@H](Cc1c[nH]cn1)NC(=O)[C@H](CCCNC(=N)N)NC(=O)[C@H](CC(C)C)NC(=O)[C@H](Cc1ccccc1)NC(=O)[C@H](CC(N)=O)NC(=O)[C@H](C)NC(=O)[C@H](CC(C)C)NC(=O)[C@H](CCCNC(=N)N)NC(=O)[C@H](CCC(N)=O)NC(=O)[C@@H](NC(=O)[C@H](C)NC(=O)[C@@H]1CSSC[C@H](NC(=O)[C@@H](N)CCCCNC(=O)COCCOCCNC(=O)CC[C@H](NC(=O)CCCCCCCCCCCCCCCCCCC(=O)O)C(=O)O)C(=O)N[C@@H](CC(N)=O)C(=O)N[C@@H]([C@@H](C)O)C(=O)N[C@@H](C)C(=O)N[C@@H]([C@@H](C)O)C(=O)N1)[C@@H](C)O)C(=O)N1CCC[C@H]1C(=O)N[C@@H](CO)C(=O)N[C@@H](CO)C(=O)N[C@H](C(=O)N[C@@H](CC(N)=O)C(=O)N[C@H](C(=O)NCC(=O)N[C@@H](CO)C(=O)N[C@@H](CCCNC(=N)N)C(=O)N[C@H](C(=O)N[C@@H](Cc1ccc(O)cc1)C(N)=O)[C@@H](C)O)C(C)C)[C@@H](C)O [Example 38] |
